Results reported in BindingDB's records for doi:10.1016/j.bmcl.2003.08.064 (Abbott Laboratories, 2003).

Columns and labels:
[1] = target: T1, Tyrosine-protein phosphatase non-receptor type 2 (Homo sapiens, UniProt P17706); test: PTP1B and TCPTP Inhibition Assay; conditions: pH 7.5; 22 °C
T1 sequence (P17706 whole entry): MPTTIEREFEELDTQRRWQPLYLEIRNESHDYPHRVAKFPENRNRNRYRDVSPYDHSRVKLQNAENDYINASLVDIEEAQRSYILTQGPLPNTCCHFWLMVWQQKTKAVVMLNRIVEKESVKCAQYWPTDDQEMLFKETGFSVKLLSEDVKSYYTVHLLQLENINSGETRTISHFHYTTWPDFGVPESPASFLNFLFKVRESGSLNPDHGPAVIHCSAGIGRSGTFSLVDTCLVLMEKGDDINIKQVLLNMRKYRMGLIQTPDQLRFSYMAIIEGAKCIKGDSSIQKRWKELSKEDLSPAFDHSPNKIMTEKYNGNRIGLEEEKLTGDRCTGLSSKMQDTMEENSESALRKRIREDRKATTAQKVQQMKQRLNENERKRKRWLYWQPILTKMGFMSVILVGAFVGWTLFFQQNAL
Method: (§1) For each concentration of test compound or DMSO control, the initial rates were used to fit the rectangular hyperbola of Michaelis-Menten by nonlinear regression analysis. The ratio of the apparent Km/Vmax vs inhibitor concentration was plotted, and the Ki was calculated by linear regression to be the negative X-intercept.

[2] = target: T2, Tyrosine-protein phosphatase non-receptor type 1 [1-298] (Homo sapiens, UniProt P18031); test: PTP1B and TCPTP Inhibition Assay; conditions: pH 7.5; 22 °C
T2 construct: 1-298
T2 sequence (P18031 whole entry): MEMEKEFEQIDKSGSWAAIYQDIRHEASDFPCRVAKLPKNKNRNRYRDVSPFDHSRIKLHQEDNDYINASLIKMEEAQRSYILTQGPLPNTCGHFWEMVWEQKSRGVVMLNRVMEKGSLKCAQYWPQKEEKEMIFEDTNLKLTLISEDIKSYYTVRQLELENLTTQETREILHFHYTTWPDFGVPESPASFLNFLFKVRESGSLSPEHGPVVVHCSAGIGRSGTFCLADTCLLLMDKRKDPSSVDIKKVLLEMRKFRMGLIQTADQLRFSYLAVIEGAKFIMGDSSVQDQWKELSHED
Method: as §1

Ki [1] [µM] | Compound | Ki [2] [µM]
> 200 | COC(=O)c1c(O)cccc1OCCCCNC(=O)[C@H](Cc1ccc(OCC(=O)O)cc1)NC(=O)OC(C)(C)C | –
182 | COC(=O)c1c(O)cccc1OCCCCNC(=O)[C@H](Cc1ccc(OCC(=O)O)c(O)c1)NC(C)=O (racemic) [2-{4-[2-acetamido-2-({4-[3-hydroxy-2-(methoxycarbonyl)phenoxy]butyl}carbamoyl)ethyl]-2-hydroxyphenoxy}acetic acid] | –
– | COC(=O)c1c(O)cccc1OCCCCNC(=O)[C@H](Cc1ccc(C=CC(=O)O)cc1)NC(=O)OC(C)(C)C [(2Z)-3-{4-[(2S)-2-{[(tert-butoxy)carbonyl]amino}-2-({4-[3-hydroxy-2-(methoxycarbonyl)phenoxy]butyl}carbamoyl)ethyl]phenyl}prop-2-enoic acid] | > 200
65 | CCc1cc(CC(NC(C)=O)C(=O)NCCCCOc2cccc(O)c2C(=O)OC)ccc1N(C(=O)C(=O)O)c1ccccc1C(=O)O (centres undefined) | –
